The text below walks through data of patent US9550776B2, “Pyridinylpyrazoloquinoline compounds” (Eisai R&D Management Co., Ltd., priority 2013, dated 2017).

The target in test [1] is T1, human recombinant PDE9 protein (Homo sapiens, UniProt O76083).
T1 construct: made in house; host or cells: silkworm (pYNG vector, Katakura Industries)
Kind of test: PDE9 inhibitory activity test ([3H]-cGMP hydrolysis). The test is classed as biochemical. Here is the method:
An hsPDE9A 1cDNA fragment was amplified by being based on a base sequence (Accession No.: AF048837) of the hsPDE9A1 registered on GenBank data base, and by using the following sequences (Hokkaido System Science Co., Ltd.) as a primer and Human hippocampus cDNA library (Clontech Laboratories, Inc.) as a template DNA, and using Pfu50 DNA polymerase (Invitrogen Corp.), and by a polymerase chain reaction (PCR) of the following condition.
The condition of PCR: [96° C., 5 min]×1 cycle, [(96° C., 10 sec), (57° C., 5 sec), (72° C., 2 min)]×30 cycles
The obtained hsPDE9A 1cDNA fragment was incorporated in a TOPO-TA cloning vector (Invitrogen Corp.), and the base sequence was checked; and thereafter, the resultant was transfected in a pcDNA 3.1/myc His-tag vector (Invitrogen Corp.) to thereby make a human PDE9 expression vector for mammal cells. The human PDE9 expression vector for mammal cells was transfected with transient expression to an HEK293 cell by using a LIPOFETAMINE 2000 Reagent (Gibco). It was confirmed by Western blot method that the PDE9A expressed in the HEK293 cell, and then, the human PDE9A 1cDNA fragment was transfected in a pYNG vector (Katakura Industries Co., Ltd.) to thereby make an expression vector for insect cells. A supernatant of homogenized silk worm in which a large amount of PDE9 was expressed was purified by an equilibrated Ni column using a buffer A (20 mmol/L Tris-HCl, pH: 8.0, 1 mmol/L DTT, 10 mmol/L imidazole). After 1 hour of mixing of the supernatant and the Ni column, cleaning was carried out using a buffer B (20 mmol/L Tris-HCl, pH: 8.0, 1 mmol/L DTT), and elution was carried out using a buffer C (20 mmol/L Tris-HCl, pH: 8.0, 1 mmol/L DTT, 100 mmol/L imidazole). An elution fraction was preparatively collected to thereby obtain a PDE9 enzyme solution.
To 100 μL of a buffer D (40 mmol/L Tris-HCl, pH: 7.4, 10 mmol/L MgCl2, 1 mM DTT, 2 μM cGMP) solution containing [^3H]-cGMP (0.5 μCi/mL), 10 μL of a compound solution for evaluation (a solution in which a compound was dissolved in DMSO and diluted so that the DMSO concentration became 5%) and 90 μL of a solution prepared by diluting the PDE9 enzyme solution prepared in the above with a buffer E (40 mmol/L Tris-HCl, pH: 7.4, 10 mmol/L MgCl2, 1 mM DTT, 1 mmol/L EGTA) were added under ice cooling. The resultant mixed solution was incubated at 30° C. for 10 min, and thereafter heated for 2 min in boiled water to stop the enzyme reaction of the PDE9. Then, the resultant was returned to room temperature; 50 μL of 5′-Nucleotidase (Biomol GmbH, 10 units/mL) was added thereto; and the resultant was incubated at 30° C. for 10 min to thereby convert [^3H]-5′-GMP formed in the previous reaction to [^3H]-guanosine. 500 μL of an anion exchange resin (Bio-Rad AGl-X2 resin, mesh size: 200-400, H2O:resin=2:1) was added to the resultant reaction liquid, and allowed to stand for 10 min, and thereafter centrifuged (2,000 rpm, 10 min); and a supernatant in which the [^3H]-guanosine was present was transferred to a LumaPlate (PerkinElmer, Inc.), and the radioactivity was measured by a TopCount NXT microplate scintillation and luminescence counter (PerkinElmer, Inc.).
The inhibition percentage of the evaluation compound was calculated using the following expression, taking the radioactivity of a control containing no evaluation compound to be (A), the radioactivity of a blank containing no enzyme to be (B), and the radioactivity of the evaluation compound to be (C). Inhibition percentage=100−{[(C)−(B)]/[(A)−(B)]}×100(%)
The IC50 value for PDE9 of the evaluation compound was determined from inhibition percentage for various concentrations.

Test [2] relates to hippocampal cGMP. Kind of test: Effect on rodent hippocampal cGMP. The test is classed as in vivo. Particulars: rat (LE), 10 mg/kg p.o., sampling time 2 hr. As for the experimental part: The test compound was administered to Sprague-Dawley male rats (Charles River Laboratories Japan, Inc.) or Long-Evans male rats (Institute for Animal Reproduction) and then the animals were sacrificed with microwave under pentobarbital anesthesia, and the hippocampus was extracted. After measuring the wet weight, the hippocampus was frozen with liquid nitrogen and stored at −80° C. In the measurement of cGMP in the hippocampus, a 0.5 M perchloric acid/1 mM EDTA solution was added at 5% (w/v) based on the wet weight, and the mixture was homogenized. After the homogenization, the homogenate was centrifuged (10000 rpm, 15 min), and the supernatant was collected. The collected supernatant was neutralized with a 2 M potassium bicarbonate solution and centrifuged (13000 rpm, 10 min). The cGMP concentration in the supernatant was measured in accordance with the non-acetylation EIA procedure of cGMP EIA kit (GE Healthcare). The result was an increase (C) in the amount of cGMP of the test compound-administered group (B) relative to the amount of cGMP of the vehicle-administered group (A), and was calculated using the following formula. cGMP increase(C)=[(B)−(A)]/(A)×100(%)

For test [3], the system named is cerebrospinal fluid cGMP. Kind of test: Effect on rodent cerebrospinal fluid cGMP. The test is classed as in vivo. Particulars: rat (LE), 10 mg/kg p.o., sampling time 2 hr. Here is the method:
The test compound was administered to ICR male mice (Charles River Laboratories Japan, Inc.), Sprague-Dawley male rats (SD) (Charles River Laboratories Japan, Inc.) or Long-Evans male rats (LE) (Institute for Animal Reproduction), and the cerebrospinal fluid was then collected under pentobarbital anesthesia and stored at −20° C. cGMP in the cerebrospinal fluid was measured in accordance with the acetylation EIA procedure of cGMP EIA kit (GE Healthcare) or the non-acetylation procedure of cGMP EIA kit (Cayman). The result was an increase (C) in the amount of cGMP of the test compound-administered group (B) relative to the amount of cGMP of the vehicle-administered group (A), and was calculated using the following formula. cGMP increase(C)=[(B)−(A)]/(A)×100(%)

T1 sequence (O76083 whole entry): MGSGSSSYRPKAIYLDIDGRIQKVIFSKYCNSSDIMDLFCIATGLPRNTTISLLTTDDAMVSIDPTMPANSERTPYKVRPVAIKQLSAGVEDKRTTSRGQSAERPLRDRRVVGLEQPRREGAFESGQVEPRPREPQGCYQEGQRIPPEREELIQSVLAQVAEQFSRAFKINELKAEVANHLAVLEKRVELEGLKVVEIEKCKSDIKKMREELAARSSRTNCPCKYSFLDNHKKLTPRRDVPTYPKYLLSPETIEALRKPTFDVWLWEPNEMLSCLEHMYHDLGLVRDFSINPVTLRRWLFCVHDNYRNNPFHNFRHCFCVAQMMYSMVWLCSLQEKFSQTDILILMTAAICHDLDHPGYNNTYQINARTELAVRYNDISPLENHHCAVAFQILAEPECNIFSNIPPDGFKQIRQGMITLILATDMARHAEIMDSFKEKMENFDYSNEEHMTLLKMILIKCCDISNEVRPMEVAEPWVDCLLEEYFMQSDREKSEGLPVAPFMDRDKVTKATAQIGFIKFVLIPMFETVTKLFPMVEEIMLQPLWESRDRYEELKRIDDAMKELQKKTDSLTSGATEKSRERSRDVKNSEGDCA

For orientation: IC50 means the concentration needed to halve the response being measured. For “(+)-7-(2-Methoxy-3,5-dimethylpyridin-4-yl)-1-((3R*,4S*)-3-methyltetrahydro-2H-pyran-4-yl)-1H-pyrazolo[4,3-c]quinoline-4(5H)-one [Example 4b]”, in test [1], the IC50 came out at 0.0391 µM.
On the same count and under the same terms, the result for “(+)-7-(6-Methoxy-2,4-dimethylpyridin-3-yl)-1-((3R*,4S*)-3-methyltetrahydro-2H-pyran-4-yl)-1H-pyrazolo[4,3-c]quinoline-4(5H)-one [Example 1c]” reads 0.0872 µM.
As to “(−)-7-(6-Methoxy-2,4-dimethylpyridin-3-yl)-1-((3R*,4R*)-3-methyltetrahydro-2H-pyran-4-yl)-1H-pyrazolo[4,3-c]quinoline-4(5H)-one [Example 1b]”, the IC50 in test [1] worked out at 0.0136 µM. Further, in test [2], the “% hippocampal cGMP increase from vehicle control” value (shortened to “% hippocampal cGMP increase”) was found to be 44%. In test [3], the “% CSF cGMP increase from vehicle control” value was 147%.
As for “(−)-7-(2-Methoxy-3,5-dimethylpyridin-4-yl)-1-((3R*,4S*)-3-methyltetrahydro-2H-pyran-4-yl)-1H-pyrazolo[4,3-c]quinoline-4(5H)-one [Example 4a]”, the IC50 in test [1] worked out at 0.0058 µM.
“(−)-7-(2-methoxy-3,5-dimethylpyridin-4-yl)-1-((3R*,4R*)-3-methyltetrahydro-2H-pyran-4-yl)-1H-pyrazolo[4,3-c]quinoline-4(5H)-one [Example 3a]”: the IC50 in test [1] stood at 0.0069 µM. For the same compound, the “% hippocampal cGMP increase” value in test [2] is 58%. Moreover, the “% CSF cGMP increase from vehicle control” value in test [3] came to 200%.
As to `COc1nc(C)cc(C)c1-c1ccc2c(c1)[nH]c(=O)c1cnn([C@@H]3CCOC[C@@H]3C)c12` (single isomer, unassigned) [Example 2c, (+)-7-(2-Methoxy-4,6-dimethylpyridin-3-yl)-1-((3R*,4R*)-3-methyltetrahydro-2H-pyran-4-yl)-1H-pyrazolo[4,3-c]quinoline-4(5H)-one], the IC50 in test [1] stood at 0.0123 µM.
Same read-out and setting: the figure for “(+)-7-(2-Methoxy-3,5-dimethylpyridin-4-yl)-1-((3R*,4R*)-3-methyltetrahydro-2H-pyran-4-yl)-1H-pyrazolo[4,3-c]quinoline-4(5H)-one [Example 3b]” is 0.0256 µM.
In the case of `COc1ncc(C)c(-c2ccc3c(c2)[nH]c(=O)c2cnn([C@H]4CC[C@@H](OC)CC4)c23)c1C` [Example 5a, 7-(2-methoxy-3,5-dimethylpyridin-4-yl)-1-(cis-4-methoxycyclohexyl)-1H-pyrazolo[4,3-c]quinoline-4(5H)-one], the IC50 in test [1] came out at 0.0098 µM.
For the compound “(−)-7-(6-Methoxy-2,4-dimethylpyridin-3-yl)-1-((3R*,4S*)-3-methyltetrahydro-2H-pyran-4-yl)-1H-pyrazolo[4,3-c]quinoline-4(5H)-one [Example 1d]”, the IC50 in test [1] was found to be 0.0069 µM. In test [2], the “% hippocampal cGMP increase” value is on record as 61%. In test [3], the “% CSF cGMP increase from vehicle control” value is 206%.
Turning to `COc1ncc(C)c(-c2ccc3c(c2)[nH]c(=O)c2cnn([C@H]4CC[C@H](OC)CC4)c23)c1C` [Example 5b, 7-(2-methoxy-3,5-dimethylpyridin-4-yl)-1-(trans-4-methoxycyclohexyl)-1H-pyrazolo[4,3-c]quinoline-4(5H)-one], the IC50 in test [1] stood at 0.0127 µM. Besides, in test [2], the “% hippocampal cGMP increase” value was 41%. The “% CSF cGMP increase from vehicle control” value in test [3] is reported as 167%.
As to “(+)-7-(2-methoxy-4,6-dimethylpyridin-3-yl)-1-((3R*,4S*)-3-methyltetrahydro-2H-pyran-4-yl)-1H-pyrazolo[4,3-c]quinoline-4(5H)-one [Example 2a]”, the IC50 in test [1] worked out at 0.0116 µM.
In the case of “(−)-7-(2-Methoxy-4,6-dimethylpyridin-3-yl)-1-((3R*,4S*)-3-methyltetrahydro-2H-pyran-4-yl)-1H-pyrazolo[4,3-c]quinoline-4(5H)-one [Example 2d]”, the IC50 in test [1] came out at 0.0013 µM. The “% hippocampal cGMP increase” value in test [2] is on record as 23%. The “% CSF cGMP increase from vehicle control” value in test [3] worked out at 183%.
Consider “(+)-7-(6-methoxy-2,4-dimethylpyridin-3-yl)-1-((3R*,4R*)-3-methyltetrahydro-2H-pyran-4-yl)-1H-pyrazolo[4,3-c]quinoline-4(5H)-one [Example 1a]”, for which the IC50 in test [1] was determined as 0.048 µM.
On to `COc1nc(C)cc(C)c1-c1ccc2c(c1)[nH]c(=O)c1cnn([C@@H]3CCOC[C@@H]3C)c12` (single isomer, unassigned) [Example 2b, (−)-7-(2-Methoxy-4,6-dimethylpyridin-3-yl)-1-((3R*,4R*)-3-methyltetrahydro-2H-pyran-4-yl)-1H-pyrazolo[4,3-c]quinoline-4(5H)-one], for which the IC50 in test [1] was 0.0037 µM.
